Data from ChEMBL document CHEMBL1144591, “Synthesis and cytotoxicity of some new eriocalyxin B derivatives” (Eur J Med Chem, 2007).
≈ marks a conversion by molar mass, not a printed value.

Experiments:
Assay type in all cases: functional, cell-based
DU-145 = assay: Cytotoxicity against human DU145 cells after 48 hrs by MTT colorimetric assay; conditions: DU-145, 48 h
K562 = assay: Cytotoxicity against human K562 cells after 48 hrs by MTT colorimetric assay; conditions: K562, 48 h
A549 = assay: Cytotoxicity against human A549 cells after 48 hrs by MTT colorimetric assay; conditions: A549, 48 h
MCF7 = assay: Cytotoxicity against human MCF7 cells after 48 hrs by MTT colorimetric assay; conditions: MCF7, 48 h
[1] = Cytotoxicity against human OVCA2780 cells after 48 hrs by MTT colorimetric assay; conditions: A2780, 48 h

Compound | IC50 (DU-145) [µg/mL] | IC50 (K562) [µg/mL] | IC50 (A549) [µg/mL] | IC50 (MCF7) [µg/mL] | IC50 [1] [µg/mL]
C=C1[C@@H]2CC[C@H]3[C@@]45CO[C@@](O)([C@@H](O)[C@@H]4C(C)(C)C=C[C@@H]5O)[C@]3(C2)[C@@H]1O | > 100 | > 100 | > 100 | > 100 | > 200
C=C1C(=O)[C@]23C[C@H]1CC[C@H]2[C@]1(COC(C)=O)C(=O)C=CC(C)(C)[C@H]1[C@H](OC(C)=O)C3=O | 17.9 (≈ 41.8 µM) | 28.1 (≈ 65.6 µM) | 61.8 (≈ 144 µM) | 24.6 (≈ 57.4 µM) | 9.71 (≈ 22.7 µM)
C=C1C(=O)[C@]23C[C@H]1CC[C@H]2[C@]12CO[C@@H](CC1=O)C(C)(C)[C@H]2[C@H](OC(=O)CBr)C3=O | 26.6 (≈ 57.1 µM) | 4.54 (≈ 9.76 µM) | 10.9 (≈ 23.4 µM) | 67.1 (≈ 144 µM) | 14.9 (≈ 32.1 µM)
C=C1C(=O)[C@]23C[C@H]1CC[C@H]2[C@]12CO[C@@H](CC1=O)C(C)(C)[C@H]2[C@H](O)C3=O | 33.2 (≈ 96.3 µM) | 3.73 (≈ 10.8 µM) | 27.2 (≈ 79 µM) | 8.87 (≈ 25.8 µM) | 16.9 (≈ 49.2 µM)
C=C1C(=O)[C@]23C[C@H]1CC[C@H]2[C@]1(COC3=O)C(=O)C=CC(C)(C)[C@H]1C(=O)O | > 100 | > 100 | > 100 | > 100 | > 200
C=C(C(=O)O)[C@@H]1CC[C@@H]2[C@@H](C1)C(=O)C(O)=C1C(C)(C)[C@@H]3CC(=O)[C@]12CO3 | > 200 | > 200 | > 200 | > 200 | > 200
C=C1C(=O)[C@]23C[C@H]1CC[C@H]2[C@@]12CO[C@@]3(O)C(=O)[C@@H]1C(C)(C)C=CC2=O | 12 (≈ 35 µM) | 4.94 (≈ 14.4 µM) | 33.2 (≈ 96.9 µM) | 59.6 (≈ 174 µM) | 7.28 (≈ 21.3 µM)
C=C1C(=O)[C@]23C[C@H]1CC[C@H]2[C@@]12CO[C@@]3(OC(C)=O)[C@@H](O)[C@@H]1C(C)(C)C=CC2=O | 74.7 (≈ 193 µM) | 7.23 (≈ 18.7 µM) | 38.9 (≈ 101 µM) | > 100 | 13.1 (≈ 34 µM)
C=C1[C@@H]2CC[C@H]3[C@@]45CO[C@@](O)([C@@H](O)[C@@H]4C(C)(C)CC[C@@H]5O)[C@]3(C2)[C@@H]1O | > 100 | > 100 | > 100 | > 100 | > 200
C[C@H]1C(=O)[C@]23C[C@H]1CC[C@H]2[C@@]12CO[C@@]3(O)[C@@H](O)[C@@H]1C(C)(C)CCC2=O | > 200 | > 100 | > 100 | > 200 | > 200
C=C1[C@@H]2CC[C@H]3[C@@]45CO[C@@](O)([C@@H](O)[C@@H]4C(C)(C)C=CC5=O)[C@]3(C2)[C@@H]1O | > 100 | 33.2 (≈ 96 µM) | 15.3 (≈ 44.1 µM) | 83.6 (≈ 241 µM) | 52.8 (≈ 152 µM)
C=C1C(=O)[C@]23C[C@H]1CC[C@H]2[C@@]12CO[C@@]3(O)[C@@H](OC(C)=O)[C@@H]1C(C)(C)C=CC2=O | 80.6 (≈ 209 µM) | 25 (≈ 64.7 µM) | 31 (≈ 80.2 µM) | 20.1 (≈ 51.9 µM) | 11.9 (≈ 30.9 µM)
C=C1C(=O)[C@]23C[C@H]1CC[C@H]2[C@]12CO[C@@H](CC1=O)C(C)(C)[C@H]2[C@H](OC(C)=O)C3=O | 31.9 (≈ 82.5 µM) | 19.3 (≈ 49.9 µM) | 10.1 (≈ 26.1 µM) | 36.7 (≈ 94.9 µM) | 11.3 (≈ 29.2 µM)
C=C1C(=O)[C@]23C[C@H]1CC[C@H]2[C@@]12CO[C@@]3(O)[C@@H](O)[C@@H]1C(C)(C)C=CC2=O | 1.34 (≈ 3.89 µM) | 1.32 (≈ 3.83 µM) | 2.49 (≈ 7.23 µM) | 0.15 (≈ 0.436 µM) | 1.8 (≈ 5.23 µM)
C=C1C(=O)[C@]23C[C@H]1CC[C@H]2[C@@]12CO[C@@]3(O)[C@@H](OC(=O)CBr)[C@@H]1C(C)(C)C=CC2=O | 4.52 (≈ 9.71 µM) | 1.5 (≈ 3.22 µM) | 4.86 (≈ 10.4 µM) | 0.85 (≈ 1.83 µM) | 2.06 (≈ 4.43 µM)
C=C1C(=O)[C@]23C[C@H]1CC[C@H]2[C@]1(COC3=O)C(=O)C=CC(C)(C)[C@H]1C=O | 47.4 (≈ 138 µM) | 0.27 (≈ 0.789 µM) | 2.26 (≈ 6.6 µM) | 0.257 (≈ 0.751 µM) | 20.7 (≈ 60.3 µM)
C=C1C(=O)[C@]23C[C@H]1CC[C@H]2[C@]12CO[C@@H](CC1=O)C(C)(C)[C@H]2[C@H](OC(=O)CCCl)C3=O | 51 (≈ 117 µM) | 8.88 (≈ 20.4 µM) | 20.3 (≈ 46.6 µM) | 22.7 (≈ 52.1 µM) | 10.5 (≈ 24.1 µM)
C=CC(=O)O[C@H]1[C@@H]2C(C)(C)C=CC(=O)[C@]23CO[C@]1(O)[C@@]12C[C@@H](CC[C@@H]31)C(=C)C2=O | 41.2 (≈ 103 µM) | 5.05 (≈ 12.7 µM) | 33 (≈ 82.8 µM) | 6.56 (≈ 16.5 µM) | 4.33 (≈ 10.9 µM)
C=C(C(=O)O)[C@@H]1CC[C@@H]2[C@@H](C1)C(=O)[C@@H](O)[C@@H]1C(C)(C)[C@@H]3CC(=O)[C@@]21CO3 | > 200 | > 100 | > 200 | > 200 | > 200
C=C1C(=O)[C@]23C[C@H]1CC[C@H]2[C@]12CO[C@@H](CC1=O)C(C)(C)[C@H]2[C@H](OC(=O)CCCCl)C3=O | > 100 | > 100 | 68.1 (≈ 152 µM) | > 100 | 42.6 (≈ 95 µM)
